Reference: patent US20080014218A1, “USE OF TIGHT JUNCTION AGONISTS TO […] DELIVERY OF THERAPEUTIC AGENTS” (ALBA THERAPEUTICS CORP., priority 2006, published 2008)
Where no end group is shown, it is not given here.

Conditions: rats, lung instillation, 10 μg salmon calcitonin + 1 mg FCIGRL vs 10 μg salmon calcitonin alone
Method: An aqueous saline solution containing 10 μg of salmon calcitonin was instilled into the lungs of rats and serum calcitonin levels were measured by ELISA. An aqueous saline solution containing 10 μg of salmon calcitonin and 1 mg of the tight junction agonist peptide FCIGRL was instilled into the lungs of rats and serum calcitonin levels were measured by ELISA.

FCIGRL [FCIGRL]
increase in area under the curve (AUC) of serum calcitonin: approximately 10.6 fold
increase in observed peak serum calcitonin levels: approximately three-fold
